Data set [1] deals with HCV subgenomic RNA replicon of genotype 1b in Huh7^A2HCV^Rep cells. Briefly: Luciferase activity assay, HCV replicon in vitro replication. The class given is cell-based. The note with it: Hepatitis C virus, 500 nM. From the text: A hepatoma cell line (Huh7-Lunet) designated Lunet-HlaA2-luc/neoET (Huh7^A2HCV^Rep) and Lunet-HlaA2 (Huh7^A2) were kindly provided by Dr. Volker Lohmann (UniversitätsKlinikum Heidelberg, Molekulare Virologie). The Lunet-HlaA2-luc/neoET expressed ectopically HLA-A2 and a selectable HCV subgenomic RNA replicon of genotype 1b harboring replication-enhancing mutations in NS3 and NS4 (Con1-ET). The replicon also expresses the selectable marker neomycin phosphotransferase, which inactivates the cytotoxic drug G418. The expression of non-structural proteins was driven by the encephalomyocarditis virus IRES (Robinson, M., Yang, H., Peng B. et al. 2010. Antimicrobial Agents and Chemotherapy. 54(8):3099-3106; Pasetto, A., Frelin, L. et al. 2012. J immunol. 189:4510-4519). The replicon cells expressed the firefly luciferase gene fused to the selectable marker by ubiquitin. As control, the parenteral cell line, designated Lunet-HlaA2, was used.
Cells were seeded in flat bottom 96-well plates (Nuncleon™ Δ Surface, Denmark) at a density of 5 000 cells/well in 100 μL of culture medium without antibiotics (G418, puromycin and blasticidin). […] The final concentration of DMSO never exceeded 0.2%. AGSOL 1000-5-5, diluted in culture medium, was added at several concentrations: 0.01 ng/mL, 0.1 ng/mL, 1 ng/mL, 10 ng/mL, 0.1 μg/mL, 1 μg/mL, 10 μg/mL and 100 μg/mL. AGSOL 100-5-5 was added as described above, excluding the concentration 100 μg/mL. Medium without added cells and cells without any inhibitors constituted negative controls. Each concentration of drug was tested in 5 unique wells and the same protocol was carried out for Huh7^A2HCV^Rep and Huh7^A2 cell lines. Inhibitors were refreshed daily. The experimental assays were performed three times with similar results.
The Lunet-HlaA2 (Huh7^A2) cell line was only used as negative control in this assay. The firefly luciferase gene expressed by the replicon cells catalyses the mono-oxygenation of beetle luciferin according to the reaction described in the following reaction scheme:
At time-points 24, 48, 72 and 96 hours post-addition of inhibitors, culture plates were removed from incubator into laminar flow hood and an equal volume of Luciferase assay reagent to that of the culture medium in each well was added. Three minutes were allowed for complete cell lysis, and subsequently the luminescence was measured. Absorbance and luminescence were read by Infinite 200 PRO reader (Tecan Group Ltd, Maennedorf, Switzerland).
The HCV in vitro replication was quantified by measuring the reporter gene expression. The Huh7^A2HCV^Rep cell line expresses both the HCV replicon and the firefly luciferase gene. The measurement of luciferase correlates with the HCV replication activity.
(In antiviral work, replicon cells carry a viral genome segment that copies itself.)

Data set [2] relates to Huh7^A2HCV^Rep and Huh7^A2 cell lines. Briefly: MTT tetrazolium proliferation / cellular toxicity assay. It counts as cell-based. How it is done:
Cells were seeded in flat bottom 96-well plates (Nuncleon™ Δ Surface, Denmark) at a density of 5 000 cells/well in 100 μL of culture medium without antibiotics (G418, puromycin and blasticidin). […] The final concentration of DMSO never exceeded 0.2%. AGSOL 1000-5-5, diluted in culture medium, was added at several concentrations: 0.01 ng/mL, 0.1 ng/mL, 1 ng/mL, 10 ng/mL, 0.1 μg/mL, 1 μg/mL, 10 μg/mL and 100 μg/mL. AGSOL 100-5-5 was added as described above, excluding the concentration 100 μg/mL. Medium without added cells and cells without any inhibitors constituted negative controls. […]
The 3-[4,5-dimethyltiazol-2-yl]-2,5-diphenyl tetrazolium bromide is cleaved by mitochondrial dehydrogenases of viable cells, leading to purple formazan in the form of insoluble crystals in aqueous solutions but dissolved in acidified isopropanol. The resulting purple solution is spectrophotometrically measured. […]
At time-points 24, 48, 72 and 96 hours post-addition of inhibitors, culture plates were removed from incubator into laminar flow hood. […] The background absorbance of multi-well plates was measured at 690 nm and was subtracted from the 570 nm values. Results were presented as the percentage of viability per condition (inhibitor/concentration) and the absorbance (A570 nm−A690 nm) per time-point for each inhibitor and per cell line. […]

Turning to `CC(C)(C)NC(=O)N[C@H](C(=O)N1C[C@H]2[C@@H]([C@H]1C(=O)NC(CC1CCC1)C(=O)C(N)=O)C2(C)C)C(C)(C)C` (stereo partly drawn) [Boceprevir], the inhibition at 0.5 µM in data set [1] (24 hpa) was approximately 85%; in data set [1] (48 hpa) it was approximately 90%; in data set [1] (72 hpa) it was approximately 90%; in data set [1] (96 hpa), approximately 90%. In addition, the “cellular viability compared to cells grown without inhibitor” value in data set [2] (Boceprevir 100-500 nM, throughout the experiments (24-96 hpa), both cell lines) is recorded as not below 75%. The “cellular toxicity by kinetic analysis of absorbance values” in data set [2] (Boceprevir, 24, 48, 72 and 96 hours post-addition) is on record as “did not cause any markedly cellular toxicity”.

A word on the inhibition: it is the relative decrease from the control value, in per cent. Low readings indicate a weak effect, high ones a strong effect.

Values taken from patent publication US20220304926A1, “PHARMACEUTICAL COMPOSITION COMPRISING A COLLOIDAL DISPERSION AND METHODS AND USES THEREOF” (PREBONA AB, priority 2019, published 2022).
